According to publication PMC11644518 (Plants, 2024):
Values joined by “and” are separate entries in the source; they are usually repeats but may differ in a detail not shown here. Equal entries are not always repeated.

Legend:
SARS-CoV PLpro [1] = target: T1, SARS-CoV PLpro (Severe acute respiratory syndrome coronavirus, UniProt P0C6X7); test: biochemical; settings: for Ki: Ki (inhibition constant)
SARS-CoV PLpro [2] = target: T1, SARS-CoV PLpro; test: biochemical; settings: for IC50: IC50 Value, SARS-CoV PLpro inhibitory activity

| SMILES | Inhibition Mode (SARS-CoV PLpro [1]) | Ki (SARS-CoV PLpro [1]) | fold lower potency than 7 (SARS-CoV PLpro [2]) [fold] | IC50 (SARS-CoV PLpro [2]) | fold higher inhibition than demethoxylated analog 1 (SARS-CoV PLpro [2]) [fold] | Effect on Michaelis-Menten constant (Km) (SARS-CoV PLpro [1]) | Effect on Vmax (SARS-CoV PLpro [1]) | Reversibility of inhibition (SARS-CoV PLpro [1]) |
| --- | --- | --- | --- | --- | --- | --- | --- | --- |
| CC(C)=CCC[C@@]1(C)C=Cc2c(ccc(C(=O)/C=C/c3ccc(O)cc3)c2O)O1 (racemic) [Compound 8, (±)-lespeol] | Noncompetitive (54.0 ± 4.5) | 54 µM | 8 | 50.1 ± 4.2 µM |  |  |  |  |
| CC(C)=CCc1cc2c(cc1O)OC[C@H]1c3ccc(O)c(CC=C(C)C)c3O[C@@H]21 [Compound 1, erythrabyssin II] | Noncompetitive (17.0 ± 3.1) |  |  |  |  |  |  |  |
| CC(C)=CCc1cc2c(cc1O)OCC1c3cc(C)c(O)c(CC=C(C)C)c3OC21 (stereo not shown) [Compound 2, lespebuergine G4] | Noncompetitive (33.2 ± 1.7) | 33.2 µM |  | 33 µM and 32.9 µM |  |  |  |  |
| COc1c(CC=C(C)C)c(O)cc2c1[C@@H]1Oc3c(ccc(O)c3CC=C(C)C)[C@@H]1CO2 [Compound 3, 1-methoxyerythrabyssin II] | Noncompetitive (8.6 ± 1.1) | 8.6 µM |  | 11.2 µM | 2 |  |  |  |
| COc1c(CC=C(C)C)c(O)cc2c1[C@@H]1Oc3c(cc(C)c(O)c3CC=C(C)C)[C@@H]1CO2 [Compound 4, bicolosin A] | Noncompetitive (45.2 ± 3.1) | 45.2 µM |  | 43.3 µM and 43.2 µM |  |  |  |  |
| CC(C)=CCC/C(C)=C/Cc1cc2c(cc1O)OC[C@H]1c3cc(C)c(O)c(CC=C(C)C)c3O[C@@H]21 [Compound 5, bicolosin B] |  |  |  | 217 ± 7.6 µM |  |  |  |  |
| COc1cc(O)c(C/C=C(\C)CCC=C(C)C)c2c1[C@@H]1Oc3cc(O)ccc3[C@@H]1CO2 [Compound 6, bicolosin C] | Noncompetitive (9.0 ± 1.4) | 9.06 µM and 9 µM |  | 9.3 ± 3.1 µM |  | no effect | reduced | reversible inhibitor |
| CC(C)=CCC/C(C)=C/Cc1c(O)ccc(C(=O)/C=C/c2ccc(O)cc2)c1O [Compound 7, xanthoangelol] | Noncompetitive (5.5 ± 0.8) | 5.5 µM |  | 6.3 ± 1.5 µM |  |  |  |  |
| COc1c(O)ccc(C2COc3cc(O)cc(O)c3C2=O)c1OC (stereo not shown) [Compound 9, parvisoflavanone] | Noncompetitive (75.3 ± 5.7) | 75.3 µM |  | 104 ± 6.1 µM |  |  |  |  |
